Data reported in patent publication US9096608B2, “Pharmaceutically active pyrazolo-triazine derivatives” (LEAD DISCOVERY CENTER GMBH, priority 2012, dated 2015).
Read-outs that look alike come from different tables or passages of the source.

Key:
Type in all cases: biochemical
CDK2/CycA = target: T1, CDK2/CycA (Homo sapiens, UniProt P24941); assay: CDK2 Enzymatic Activity Assay (Lance Kinase Activity Assay, FRET); settings: for CDK2 IC50 range class: Table 5B, symbols per IC50 ranges of b615
T1 construct: purchased Proqinase
Summary of the method: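 Compounds serially diluted 1:3 over 8 steps, run with CDK2/CycA, ULight-MBP substrate and ATP in HEPES pH 7.5 buffer for 1 h at room temperature. LANCE TR-FRET detection with Eu-anti-phospho-MBP after EDTA stop; IC50 from sigmoidal dose-response curves.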

CDK7/CycH/Mat1 = target: T2, CDK7/CycH/Mat1 (Homo sapiens, UniProt P50613); assay: CDK7 Enzymatic Activity Assay (Lance Kinase Activity Assay, FRET)
T2 construct: purchased Carna
Summary of the method: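 TR-FRET (LANCE) kinase assay with ULight-MBP peptide substrate and Eu-labelled anti-phospho antibody; compounds in 8-point 1:3 series in HEPES 50 mM pH 7.5, MgCl2 10 mM, EGTA 1 mM, DTT 2 mM, 0.01% Tween-20.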

CDK9/Cyclin T1 = target: T3, CDK9/Cyclin T1 (Homo sapiens, UniProt P50750); assay: CDK9 Enzymatic Activity Assay (Lance Kinase Activity Assay, FRET); settings: for CDK9: Selectivity of CDK7 inhibition over CDK9 inhibition [fold]: Table 5B, symbols per IC50 ranges of b615
T3 construct: purchased Invitrogen
Summary of the method: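 TR-FRET detection of ULight-MBP substrate phosphorylation by CDK9/cyclin T1 using a Eu-anti-phospho-MBP antibody, in 50 mM HEPES pH 7.5, 10 mM MgCl2, 1 mM EGTA, 2 mM DTT, 0.01% Tween-20. Kinase reaction 1 h at room temperature, then EDTA detection buffer for 1 h before reading.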

[1] = Table 5A, 25 μM ATP final, read-out: CDK7: IC50 [mM] for CDK7 inhibition (the above defined ranges apply)

T2 sequence (P50613 whole entry): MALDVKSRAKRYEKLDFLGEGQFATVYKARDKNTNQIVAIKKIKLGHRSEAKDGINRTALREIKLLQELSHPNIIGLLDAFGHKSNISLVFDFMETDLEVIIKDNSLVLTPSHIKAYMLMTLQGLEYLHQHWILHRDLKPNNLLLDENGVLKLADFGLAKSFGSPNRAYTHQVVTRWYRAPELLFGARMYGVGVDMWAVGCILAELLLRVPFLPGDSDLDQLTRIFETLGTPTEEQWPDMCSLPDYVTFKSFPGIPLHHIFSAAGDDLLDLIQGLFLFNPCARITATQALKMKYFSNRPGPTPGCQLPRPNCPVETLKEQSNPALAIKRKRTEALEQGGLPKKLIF
T2 sequence (P51946 whole entry partner): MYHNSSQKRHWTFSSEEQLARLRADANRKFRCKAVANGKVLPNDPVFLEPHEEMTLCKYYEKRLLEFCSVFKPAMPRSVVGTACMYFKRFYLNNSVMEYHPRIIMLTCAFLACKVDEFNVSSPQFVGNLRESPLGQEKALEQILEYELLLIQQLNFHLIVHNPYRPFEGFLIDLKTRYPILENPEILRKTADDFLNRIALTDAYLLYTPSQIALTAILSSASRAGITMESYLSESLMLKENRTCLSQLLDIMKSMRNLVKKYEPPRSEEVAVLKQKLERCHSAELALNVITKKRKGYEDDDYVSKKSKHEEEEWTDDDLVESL
T2 sequence (P51948 whole entry partner): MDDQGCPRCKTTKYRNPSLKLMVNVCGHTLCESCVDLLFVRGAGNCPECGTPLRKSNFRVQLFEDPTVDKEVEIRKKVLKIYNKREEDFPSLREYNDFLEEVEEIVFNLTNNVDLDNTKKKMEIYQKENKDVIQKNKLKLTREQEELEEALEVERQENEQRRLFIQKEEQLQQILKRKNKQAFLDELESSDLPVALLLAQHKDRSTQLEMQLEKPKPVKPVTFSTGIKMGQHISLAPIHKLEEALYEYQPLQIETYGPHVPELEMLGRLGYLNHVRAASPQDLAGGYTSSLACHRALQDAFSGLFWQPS
T3 sequence (P50750 whole entry): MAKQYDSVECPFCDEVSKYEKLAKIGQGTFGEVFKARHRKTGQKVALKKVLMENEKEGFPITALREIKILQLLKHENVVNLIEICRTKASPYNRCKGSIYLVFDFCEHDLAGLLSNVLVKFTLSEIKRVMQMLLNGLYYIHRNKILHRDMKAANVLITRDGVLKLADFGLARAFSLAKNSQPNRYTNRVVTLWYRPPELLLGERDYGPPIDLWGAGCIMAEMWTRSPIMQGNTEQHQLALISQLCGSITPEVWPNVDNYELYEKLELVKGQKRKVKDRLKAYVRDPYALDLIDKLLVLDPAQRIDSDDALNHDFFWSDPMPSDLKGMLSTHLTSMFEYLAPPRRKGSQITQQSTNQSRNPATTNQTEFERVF
T3 sequence (O60563 whole entry partner): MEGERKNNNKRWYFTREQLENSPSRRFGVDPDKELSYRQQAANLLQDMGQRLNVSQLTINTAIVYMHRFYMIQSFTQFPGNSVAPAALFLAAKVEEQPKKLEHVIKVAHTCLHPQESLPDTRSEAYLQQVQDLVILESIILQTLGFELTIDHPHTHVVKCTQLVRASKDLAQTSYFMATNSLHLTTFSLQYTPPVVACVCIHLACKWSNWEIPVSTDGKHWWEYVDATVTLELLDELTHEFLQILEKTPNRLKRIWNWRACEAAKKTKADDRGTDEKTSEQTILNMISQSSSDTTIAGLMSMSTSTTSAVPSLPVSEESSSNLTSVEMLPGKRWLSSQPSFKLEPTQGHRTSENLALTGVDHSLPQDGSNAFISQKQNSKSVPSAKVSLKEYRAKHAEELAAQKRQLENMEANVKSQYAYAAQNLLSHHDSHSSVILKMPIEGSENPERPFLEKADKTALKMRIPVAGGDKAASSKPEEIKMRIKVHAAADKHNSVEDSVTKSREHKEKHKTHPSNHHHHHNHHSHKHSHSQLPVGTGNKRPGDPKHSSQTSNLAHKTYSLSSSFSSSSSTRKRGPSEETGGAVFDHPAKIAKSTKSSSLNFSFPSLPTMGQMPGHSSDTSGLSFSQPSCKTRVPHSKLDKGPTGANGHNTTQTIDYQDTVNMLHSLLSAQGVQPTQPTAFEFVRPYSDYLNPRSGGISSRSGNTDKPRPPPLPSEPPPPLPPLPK

Row | Structure (SMILES) | CDK2 IC50 range class (CDK2/CycA) | Selectivity CDK7 over CDK2 [fold] (CDK2/CycA; Table 7, lower part) | IC50 (CDK2/CycA; Table 7, upper part) [nM] | IC50 (CDK7/CycH/Mat1; [1]) [nM] | IC50 (CDK7/CycH/Mat1; Table 7, lower part, read-out: IC50 [nM] CDK7) [nM] | IC50 (CDK7/CycH/Mat1; Table 7, upper part, read-out: IC50 [nM] CDK7) [nM] | CDK9: Selectivity of CDK7 inhibition over CDK9 inhibition [fold] (CDK9/Cyclin T1) | Selectivity CDK7 over CDK9 [fold] (CDK9/Cyclin T1; Table 7, lower part) | IC50 (CDK9/Cyclin T1; Table 7, upper part) [nM]
1 | COc1ccccc1[C@H](C)Nc1nc([S+]([O-])C2CCNCC2)nc2c(C(C)C)cnn12 (stereo partly drawn) [(X-c), 8-isopropyl-N-((S)-1-(2-methoxyphenyl)ethyl)-2-(piperidin-4-ylsulfinyl)pyrazolo[1,5-a][1,3,5]triazin-4-amine] | +++ (IC50>2500 nM) | 1612 | > 2500 | < 10 | < 10 | < 10 | +++ (IC50>2500 nM) | 1475 | > 2500
2 | CC(C)c1cnn2c(N[C@@H](C)c3ccccc3C(F)(F)F)nc(O[C@@H]3CCCNC3)nc12 [(VII-ah), 8-isopropyl-2-((R)-piperidin-3-yloxy)-N-((S)-1-(2-(trifluoromethyl)phenyl)ethyl)pyrazolo[1,5-a][1,3,5]triazin-4-amine] | +++ (IC50>2500 nM) | – | – | 10 to 30 | – | – | +++ (IC50>2500 nM) | – | –
3 | COc1cccc([C@H](C)Nc2nc(OCCN(C)S(=O)(=O)C3CCNCC3)nc3c(C(C)C)cnn23)c1 [(VII-bw), (S)-N-(2-((8-isopropyl-4-((1-(3-methoxyphenyl)ethyl)amino)pyrazolo[1,5-a][1,3,5]triazin-2-yl)oxy)ethyl)-N-methylpiperidine-4-sulfonamide] | +++ (IC50>2500 nM) | – | – | < 10 | – | – | +++ (IC50>2500 nM) | – | –
4 | CC(C)c1cnn2c(NC(C)c3cccc4cn[nH]c34)nc(O[C@@H]3CCCNC3)nc12 (stereo partly drawn) [(VII-cb), N-(1-(1H-indazol-7-yl)ethyl)-8-isopropyl-2-((R)-piperidin-3-yloxy)pyrazolo[1,5-a][1,3,5]triazin-4-amine] | +++ (IC50>2500 nM) | – | – | < 10 | – | – | +++ (IC50>2500 nM) | – | –
5 | COc1cccc([C@H](C)Nc2nc(O[C@@H]3CCCNC3)nc3c(C(C)C)cnn23)c1OC [(VII-aX), N-((S)-1-(2,3-dimethoxy-phenyl)ethyl)-8-isopropyl-2-((R)-piperidin-3-yloxy)pyrazolo[1,5-a][1,3,5]triazin-4-amine] | +++ (IC50>2500 nM) | – | – | < 10 | – | – | +++ (IC50>2500 nM) | – | –
6 | COc1ccc(C(C)Nc2nc(O[C@@H]3CCCNC3)nc3c(C(C)C)cnn23)cc1 (stereo partly drawn) [(VII-an), 8-isopropyl-N-(1-(4-methoxyphenyl)ethyl)-2-((R)-piperidin-3-yloxy)pyrazolo[1,5-a][1,3,5]triazin-4-amine] | +++ (IC50>2500 nM) | – | – | > 100 | – | – | +++ (IC50>2500 nM) | – | –
7 | CC(C)c1cnn2c(NC(C)c3ccccc3-c3ccccc3)nc(O[C@@H]3CCCNC3)nc12 (stereo partly drawn) [(VII-as), N-(1-([1,1′-biphenyl]-2-yl)ethyl)-8-isopropyl-2-((R)-piperidin-3-yloxy)pyrazolo[1,5-a][1,3,5]triazin-4-amine] | +++ (IC50>2500 nM) | – | – | > 100 | – | – | +++ (IC50>2500 nM) | – | –
8 | CC(C)c1cnn2c(NC(C)c3ccccc3N3CCCCC3)nc(O[C@@H]3CCCNC3)nc12 (stereo partly drawn) [(VII-aq), 8-isopropyl-N-(1-(2-(piperidin-1-yl)phenyl)ethyl)-2-((R)-piperidin-3-yloxy)pyrazolo[1,5-a][1,3,5]triazin-4-amine] | +++ (IC50>2500 nM) | – | – | > 100 | – | – | +++ (IC50>2500 nM) | – | –
9 | CC(C)c1cnn2c(N[C@@H](C)c3cccc(F)c3)nc(O[C@@H]3CCCNC3)nc12 [(VII-ak), N-((S)-1-(3-fluorophenyl)ethyl)-8-isopropyl-2-((R)-piperidin-3-yloxy)pyrazolo[1,5-a][1,3,5]triazin-4-amine] | +++ (IC50>2500 nM) | – | – | 30 to 100 | – | – | +++ (IC50>2500 nM) | – | –
10 | COc1ccc([C@H](C)Nc2nc(OC3CCN(C)CC3)nc3c(C(C)C)cnn23)cc1 [(VII-aa), (S)-8-isopropyl-N-(1-(4-methoxyphenyl)ethyl)-2-((1-methylpiperidin-4-yl)oxy)pyrazolo[1,5-a][1,3,5]triazin-4-amine] | +++ (IC50>2500 nM) | – | – | > 100 | – | – | +++ (IC50>2500 nM) | – | –
11 | CC(C)c1cnn2c(NC(C)c3cccc4c3cnn4C)nc(O[C@@H]3CCCNC3)nc12 (stereo partly drawn) [(VII-bh), 8-isopropyl-N-(1-(1-methyl-1H-indazol-4-yl)ethyl)-2-((R)-piperidin-3-yloxy)pyrazolo[1,5-a][1,3,5]triazin-4-amine] | +++ (IC50>2500 nM) | – | – | < 10 | – | – | +++ (IC50>2500 nM) | – | –

Other lines, results leading:

Row | CDK2 IC50 range class (CDK2/CycA) | Selectivity CDK7 over CDK2 [fold] (CDK2/CycA; Table 7, lower part) | IC50 (CDK2/CycA; Table 7, upper part) [nM] | IC50 (CDK7/CycH/Mat1; [1]) [nM] | IC50 (CDK7/CycH/Mat1; Table 7, lower part, read-out: IC50 [nM] CDK7) [nM] | IC50 (CDK7/CycH/Mat1; Table 7, upper part, read-out: IC50 [nM] CDK7) [nM] | CDK9: Selectivity of CDK7 inhibition over CDK9 inhibition [fold] (CDK9/Cyclin T1) | Selectivity CDK7 over CDK9 [fold] (CDK9/Cyclin T1; Table 7, lower part) | IC50 (CDK9/Cyclin T1; Table 7, upper part) [nM] | Structure (SMILES)
12 | +++ (IC50>2500 nM) | – | – | > 100 | – | – | +++ (IC50>2500 nM) | – | – | COc1cccc([C@H](C)Nc2nc(N3CCC(N)C3)nc3c(C(C)C)cnn23)c1 (stereo partly drawn) [(VIII-q), 2-(3-aminopyrrolidin-1-yl)-8-isopropyl-N-((S)-1-(3-methoxyphenyl)ethyl)pyrazolo[1,5-a][1,3,5]triazin-4-amine]
13 | +++ (IC50>2500 nM) | – | – | > 100 | – | – | +++ (IC50>2500 nM) | – | – | COc1cccc([C@H](C)Nc2nc(C(=O)NCCCN)nc3c(C(C)C)cnn23)c1 [(XXVI-5), (S)-N-(3-aminopropyl)-8-isopropyl-4-((1-(3-methoxyphenyl)ethyl)amino)pyrazolo[1,5-a][1,3,5]triazine-2-carboxamide]
14 | +++ (IC50>2500 nM) | – | – | > 100 | – | – | +++ (IC50>2500 nM) | – | – | COc1cccc([C@H](C)Nc2nc(OCCN3CCNCC3)nc3c(C(C)C)cnn23)c1 [(VII-bn), (S)-8-isopropyl-N-(1-(3-methoxyphenyl)ethyl)-2-(2-(piperazin-1-yl)ethoxy)pyrazolo[1,5-a][1,3,5]triazin-4-amine]
15 | +++ (IC50>2500 nM) | – | – | > 100 | – | – | +++ (IC50>2500 nM) | – | – | COc1cccc([C@H](C)Nc2nc(CN3CC(N4CCCC4=O)C3)nc3c(C(C)C)cnn23)c1 [(XXIX-10), (S)-1-(1-((8-isopropyl-4-((1-(3-methoxyphenyl)ethyl)amino)pyrazolo[1,5-a][1,3,5]triazin-2-yl)methyl)azetidin-3-yl)pyrrolidin-2-one]
16 | +++ (IC50>2500 nM) | – | – | > 100 | – | – | +++ (IC50>2500 nM) | – | – | COc1cccc([C@H](C)Nc2nc(NC(CN)c3ccccc3)nc3c(C(C)C)cnn23)c1 (stereo partly drawn) [(VIII-z), N2-(2-amino-1-phenylethyl)-8-isopropyl-N4-((S)-1-(3-methoxyphenyl)ethyl)pyrazolo[1,5-a][1,3,5]triazine-2,4-diamine]
17 | +++ (IC50>2500 nM) | – | – | > 100 | – | – | +++ (IC50>2500 nM) | – | – | COc1cccc([C@H](C)Nc2nc(N3CC4CCNC4C3)nc3c(C(C)C)cnn23)c1 (stereo partly drawn) [(VIII-r), 2-(hexahydropyrrolo[3,4-b]pyrrol-5(1H)-yl)-8-isopropyl-N-((S)-1-(3-methoxyphenyl)ethyl)pyrazolo[1,5-a][1,3,5]triazin-4-amine]
18 | +++ (IC50>2500 nM) | – | – | 10 to 30 | – | – | +++ (IC50>2500 nM) | – | – | COc1cccc([C@H](C)Nc2nc(S(=O)(=O)C3CCNCC3)nc3c(C(C)C)cnn23)c1 [(X-f), (S)-8-isopropyl-N-(1-(3-methoxyphenyl)ethyl)-2-(piperidin-4-ylsulfonyl)pyrazolo[1,5-a][1,3,5]triazin-4-amine]
19 | +++ (IC50>2500 nM) | – | – | > 100 | – | – | +++ (IC50>2500 nM) | – | – | COc1cccc([C@H](C)Nc2nc(NCCCN3CCOCC3)nc3c(C(C)C)cnn23)c1 [(VIII-j), (S)-8-isopropyl-N4-(1-(3-methoxyphenyl)ethyl)-N2-(3-morpholinopropyl)pyrazolo[1,5-a][1,3,5]triazine-2,4-diamine]
20 | +++ (IC50>2500 nM) | – | – | > 100 | – | – | +++ (IC50>2500 nM) | – | – | COc1cccc([C@H](C)Nc2nc(CN(C)CCCN3CCCCC3)nc3c(C(C)C)cnn23)c1 [(XXIX-8), (S)-8-isopropyl-N-(1-(3-methoxyphenyl)ethyl)-2-((methyl(3-(piperidin-1-yl)propyl)amino)methyl)pyrazolo[1,5-a][1,3,5]triazin-4-amine]
